Patent US5656256A (The University of North Carolina at Chapel Hill, priority 1994, dated 1997)

Assays:
[1] = biological target: T1, airway epithelial Na+ channels (Homo sapiens, UniProt P37088+P51168+P51170); assay: Short-circuit current (Isc) measurement of sodium transport in cultured human nasal epithelium, Ussing chamber; assay type: cell-based; conditions: for concentration achieving the same level of complete sodium channel blocking, less than amiloride: apical surface of human nasal epithelium, relative to amiloride
T1 construct: Cells from freshly excised specimens are protease isolated; endogenous in cells
T1 sequence (P37088 1-669): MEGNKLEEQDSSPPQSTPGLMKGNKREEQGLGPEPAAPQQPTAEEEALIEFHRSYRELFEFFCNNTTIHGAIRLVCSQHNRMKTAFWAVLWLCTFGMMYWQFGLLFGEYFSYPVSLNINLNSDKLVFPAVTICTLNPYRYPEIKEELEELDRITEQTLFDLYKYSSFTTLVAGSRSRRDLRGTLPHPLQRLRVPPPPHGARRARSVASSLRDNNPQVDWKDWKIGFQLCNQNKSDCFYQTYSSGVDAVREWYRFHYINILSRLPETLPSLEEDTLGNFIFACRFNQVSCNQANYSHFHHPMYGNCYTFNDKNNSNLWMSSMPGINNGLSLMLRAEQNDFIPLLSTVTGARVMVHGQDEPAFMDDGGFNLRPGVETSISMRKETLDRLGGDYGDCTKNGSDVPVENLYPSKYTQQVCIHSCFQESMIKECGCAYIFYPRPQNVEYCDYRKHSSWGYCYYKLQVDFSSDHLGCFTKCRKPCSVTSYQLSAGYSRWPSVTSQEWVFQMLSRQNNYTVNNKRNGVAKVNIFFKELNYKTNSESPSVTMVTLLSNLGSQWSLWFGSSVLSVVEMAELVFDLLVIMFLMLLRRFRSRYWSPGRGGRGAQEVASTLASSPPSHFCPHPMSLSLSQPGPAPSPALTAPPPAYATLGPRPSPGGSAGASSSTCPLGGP
T1 sequence (P51168 1-640): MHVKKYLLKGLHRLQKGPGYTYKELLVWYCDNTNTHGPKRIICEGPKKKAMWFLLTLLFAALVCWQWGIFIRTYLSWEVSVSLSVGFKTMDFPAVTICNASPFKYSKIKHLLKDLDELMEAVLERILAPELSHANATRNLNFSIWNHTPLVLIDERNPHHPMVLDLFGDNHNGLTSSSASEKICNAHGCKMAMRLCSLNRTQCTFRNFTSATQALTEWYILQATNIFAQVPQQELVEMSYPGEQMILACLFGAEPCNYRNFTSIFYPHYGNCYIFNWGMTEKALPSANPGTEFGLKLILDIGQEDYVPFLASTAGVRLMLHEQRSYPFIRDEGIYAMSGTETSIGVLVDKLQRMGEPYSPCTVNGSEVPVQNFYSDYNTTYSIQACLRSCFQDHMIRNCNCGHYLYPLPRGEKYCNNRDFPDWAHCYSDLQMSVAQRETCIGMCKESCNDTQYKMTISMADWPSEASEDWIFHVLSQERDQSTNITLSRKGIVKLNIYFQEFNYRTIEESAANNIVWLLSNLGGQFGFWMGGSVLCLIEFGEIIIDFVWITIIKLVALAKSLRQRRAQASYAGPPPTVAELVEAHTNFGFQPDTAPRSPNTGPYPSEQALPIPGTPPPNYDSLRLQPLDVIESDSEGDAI
T1 sequence (P51170 1-649): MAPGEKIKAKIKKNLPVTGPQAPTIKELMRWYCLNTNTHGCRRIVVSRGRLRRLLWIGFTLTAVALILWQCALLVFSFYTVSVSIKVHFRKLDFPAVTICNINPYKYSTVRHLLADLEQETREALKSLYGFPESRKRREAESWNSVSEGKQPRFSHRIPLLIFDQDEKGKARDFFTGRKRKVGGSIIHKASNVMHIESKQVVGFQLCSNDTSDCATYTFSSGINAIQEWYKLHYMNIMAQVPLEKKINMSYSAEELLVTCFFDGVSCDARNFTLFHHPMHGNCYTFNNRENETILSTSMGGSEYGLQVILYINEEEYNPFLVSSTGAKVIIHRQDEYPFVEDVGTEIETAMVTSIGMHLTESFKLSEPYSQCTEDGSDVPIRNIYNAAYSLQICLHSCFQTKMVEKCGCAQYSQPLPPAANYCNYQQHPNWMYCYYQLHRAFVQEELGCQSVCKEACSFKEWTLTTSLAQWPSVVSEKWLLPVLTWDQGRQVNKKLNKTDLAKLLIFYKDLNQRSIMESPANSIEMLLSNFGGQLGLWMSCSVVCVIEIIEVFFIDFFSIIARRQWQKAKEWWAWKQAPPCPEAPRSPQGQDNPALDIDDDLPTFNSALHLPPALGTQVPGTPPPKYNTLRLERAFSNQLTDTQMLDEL
Protocol: The cell culture procedures used in this example are performed as described in Willumsen, N. J., et al., Am. J. Physiol. 256:C1033-C1044 (Cell. Physiol. 25) (1989) and Yankaskas, J. R., et al., Am. Rev. Respir. Dis. 132:1281-1287 (1985). Cells from freshly excised specimens are protease isolated with protease XIV (Sigma, St, Louis, Mo.), concentrated,and plated on collagen membranes in the bottom of plastic-tissue culture cups. The cells are fed for 5 days with serum-free F-12 medium containing the following additives (F-12/7X): insulin, epidermal growth factor, cholera toxin, transferrin, hydrocortisone, triiodothyronine, and endothelial cell growth substance. Subsequently, they are fed with F-12/7X media supplemented (1:1) with 3T3 fibroblast-conditioned media containing 1% fetal bovine serum. After the fifth day in culture, the transepithelial potential difference (PD) developed by the culture is measured daily to detect the occurrence of confluency. Cell preparations are routinely studied within 1 day of the development of the maximal PD.
J. Physiol. (Cell Physiol. 25) 256:C1033-C1053 (1989).
The tissue preparation described in Example 1 is mounted in a modified (superfusion, not recirculating), miniature Ussing chamber interfaced to a voltage clamp that measures transepithelial PD and the PD response to constant current (I) pulses. The chamber contains 1 ml of bathing solution for each (apical; basolateral) surface of the preparation. The solution used as the vehicle for drug delivery is a Krebs bicarbonate Ringer solution (KBR) which approximates the ionic composition of plasma. This solution is warmed (37°) and gassed (95% oxygen, 5% CO2) to maintain pH 7.4. The cultured cells are superfused on both surfaces with KBR.
The measurement of sodium transport rates is performed by recording the spontaneous transepithelial PD (Vt) and responses of the PD to constant current pulses. From the relationship between Vt and induced Vt deflections, the transepithelial resistance (Rt) is calculated. The short-circuit current (Isc), or measure of sodium transport rate, is determined as Isc =Vt /Rt.
Each cultured human airway epithelial preparation is exposed to different concentrations (10^-8 M-10^-3 M) of a sodium-channel blocking drug on either the basolateral or apical surface for the dose response studies. To construct concentration-effect relationships of the response to the drugs, it was assumed that the same maximum response to a drug could be induced from each tissue culture preparation from the same individual.

[2] = biological target: T1, airway epithelial Na+ channels; assay: Persistence of Na+ absorption blockade after washout of drug, Ussing chamber; assay type: cell-based; conditions: 10^-5 M for 5 minutes to the luminal surface, then KBR perfusion; time for Isc to return to basal
Text: In vivo, drug is delivered to the lungs as a single bolus. […] This Example illustrates the contribution of binding of drug to the target site (2) to the duration of drug action.
A protocol was designed to measure the duration of drug action after removal of drug from the airway surface liquid compartment. For this protocol, human airway epithelial preparations as described in Example 1 are mounted in modified Ussing chambers and interfaced to voltage clamps as described above in Example 2. Basal measurements of Isc in KBR are made and the steady state response to a 5 minute administration of a single maximal effective concentration (10^-5 M) of drug delivered to the luminal surface is measured. Following this step, administration of the drug is stopped, the lumen is perfused with standard KBR solutions, and the time required for Isc to return to baseline or basal levels is measured.

| Compound | potency as blocker of apical Na+ channels (in words) ([1]; steady-state inhibition of Na+ transport, human nasal epithelia) | concentration achieving the same level of complete sodium channel blocking, less than amiloride [1] | potency compared to amiloride (more potent by) [1] | duration of activity after washout compared to amiloride [2] |
| --- | --- | --- | --- | --- |
| N=C(N)NC(=O)c1nc(Cl)c(N)nc1N [amiloride] | significantly less potent than benzamil or phenamil | – | – | – |
| NC(=NCc1ccccc1)NC(=O)c1nc(Cl)c(N)nc1N [benzamil, 3,5-diamino-6-chloro-N-(benzylaminoaminomethylene)pyrazinecarboxamide] | – | approximately one | 1-1.5 log-concentration units | almost twice as long as amiloride |
| NC(=Nc1ccccc1)NC(=O)c1nc(Cl)c(N)nc1N [phenamil, 3,5-diamino-6-chloro-N-(phenylaminoaminomethylene)pyrazinecarboxamide] | – | approximately one | 1-1.5 log-concentration units | almost twice as long as amiloride |
